Assay results published in a melting point compilation (Tetko et al.; mined from patent text by program, amines drawn as free bases though some values may be those of a salt).

| Compound | melting point [°C] |
| --- | --- |
| NCC1c2ccccc2CCN1CC(O)CN1CCOCC1 (stereo not drawn) | 138 to 139 |
| Nc1ccc(CO)cc1N | 74 to 75 |
| O=C1NCCN(NC(=O)c2ccc(O)c(O)c2)C1=O | 294 |
| CN1CCN(c2nc3c(cc2F)c(=O)c(C(=O)O)cn3C2CSC2)CC1 | 270 to 280 |
| c1ccc(C2COc3cccc4c5c(OCCN6CCNCC6)cccc5n2c34)cc1 (stereo not drawn) | 72 |
| CC(=O)C1CCC2C3CCC4CC(=O)CCC4(C)C3C(OC(=O)CCl)CC12C (stereo not drawn) | 133 to 135 |
| O=C(CN1CCNCC1)Nc1ccc2c(c1)C(=O)c1cc(NC(=O)CN3CCNCC3)ccc1C2=O | 173 |
| Cn1cc(C(=O)CCN2CCCCC2)cc1C(=O)c1cccc2ccccc12 | 141 to 143 |
| CCOCc1cc(CCCOc2c(C)cc(-c3noc(C(F)(F)F)n3)cc2C)on1 | 24 to 25 |
| C=CS(=O)(=O)N1CCC(N2N=C(c3ccc(OC)c(OC)c3)[C@H]3CC=CC[C@H]3C2=O)CC1 | 89 to 90 |
| COc1cc(OC)nc(Oc2ccccc2C(=O)NS(=O)(=O)C(C)C)n1 | 128 to 130 |
| CC1=C(C(=O)OC(C)(C)C)C(c2ccc(C)cc2C)C(C(=O)OC(C)(C)C)=C(C)N1 | 197 to 198 |
| CCC(=O)c1ccnc(OC)c1 | 38 |
| CN(C)C[C@H]1CCSc2ccccc2[C@]1(O)c1cccc(O)c1 (racemic) | 188 to 190 |
| COC(=O)NNC(=O)c1n[nH]c2cc(OC)c(OC)cc12 | 235 |
| O=C1C=C(NC(=O)C(=O)c2cn(Cc3ccc(Cl)cc3)c3cc(Cl)ccc23)CO1 | 255 to 257 |
| COc1cc(NC(=O)OC(C)(C)C)c(NC(=O)CC(=O)c2cccc(-n3ccnc3)c2)cc1-c1ccc(F)cc1C | 99 to 102 |
| O=C(Nc1ccc2cc(CN3CCCC3)cnc2c1)c1ccc(-c2ccc(F)cc2)nc1 | 218 to 220 |
| CC1(C)OCC(NC(=O)c2ccc([N+](=O)[O-])cc2)CO1 | 211 |
| CCCCCCCCCCCCc1ccc(S(=O)(=O)Nc2nnc(CO)s2)cc1 | 138 to 139 |
| COc1cc(OC)c2c(C)c(CCOS(C)(=O)=O)c(=O)oc2c1 | 170 to 172 |
| Fc1ccc(-c2nc3ccc(N4CCC(N5CCCC5)CC4)nn3c2-c2ccnc3[nH]ccc23)cc1 | 261 to 264 |
| CC1(C)CC(=O)C2=C(C1)NC1=C(C(=O)CC(C)(C)C1)C2c1ccc2c(c1)OCCO2 | > 300 |
| CCCCc1nc2c(N)nc3ccc(O)cc3c2n1CCCCNS(C)(=O)=O | 223 to 227 |

| Compound | melting point [°C] |
| --- | --- |
| CC(C)(C)C(=O)c1occc1C(=O)O | 85 to 89 |
| Nc1ccc([N+](=O)[O-])c(Cl)c1Cl | 170 to 174 |
| CCCCc1ccc(N=C2NCCCN2)cc1 | 116 to 119 |
| Cc1c[nH]c2cc(-c3nn(C(C)c4oc5ccccc5c(=O)c4-c4cccc(F)c4)c4ncnc(N)c34)ccc12 (stereo not drawn) | 262 to 265 |
| Cn1cnc(COc2nn3c(-c4ccccc4)nnc3cc2-c2ccccc2)n1 | 229 to 233 |
| Cn1ccnc1C(C)(C)O | 128 to 129 |
| CCCCCCCCC#CCC#CCC#CCO | 48 |
| O=C(O)CCC1CCCC2CC(=O)NC12 (stereo not drawn) | 180 to 181 |
| CNC(Cc1cc(Br)cc(Br)c1N)c1sccc1C (stereo not drawn) | 141 to 143 |
| O=C(O)C1(C(=O)O)CCOCCOCCOCCOCC1 | 107 to 111 |
| COc1ccc(-c2c3ccccc3cc3sc4ccccc4c23)cc1 | 220 to 221 |
| CC(C)(C)OC(=O)N[C@@H]1C(=O)N(O)C1(C)C | 148 to 149 |
| C[Si](C)(C)C#Cc1ccc(C2=CC(c3ccc(C#C[Si](C)(C)C)cc3)N(c3ccccc3)N2)cc1 (stereo not drawn) | 108 to 110 |
| CC(C)c1nn(-c2ncc(C#N)cn2)cc1CCCO | 153 to 154 |
| CC(=O)Oc1ccc(C(=O)N2CCNC2=O)cc1OC(C)=O | 154 to 156 |
| O=C1CCC(CCc2ccc(-c3ccccc3)cc2)N1O (stereo not drawn) | 192 to 194 |
| CNC(=O)N1CCC(Oc2ccc(C(F)(F)F)cc2)(c2ccccc2)CC1 | 118 to 120 |
| CCCCOc1nc(N)nc2c1ncn2C1C=CC(CO)C1 (stereo not drawn) | 122 to 123 |
| CS(=O)(=O)c1ccc(-c2cc(-c3c(-c4ccccn4)nc4ccccn34)ccn2)cc1 | 242 to 244 |
| O=C1C(=O)c2ccccc2C2=C1SCC(CN1CCC3(CC1)OCCO3)O2 (stereo not drawn) | 202 to 204 |
| CCOc1cc(C(CC(=O)OC)N2C(=O)c3cccc(N)c3C2=O)ccc1OC (stereo not drawn) | 134 to 136 |
| CCCCOc1cccc(CCNC(=O)C=CC2CCCCC2)c1 | 67 to 71 |
| Fc1cccc(Nc2nc(Cl)nc(NC3CCCCCC3)n2)c1 | 148 |
| CCOC(=O)CCC1(CCC(=O)OCC)CCC(=O)N1 | 44 to 46 |

Second part, the compound after the results:

| melting point [°C] | Compound |
| --- | --- |
| 194 to 197 | COc1ccc2c(c1)c(=O)c(CO)cn2C |
| 133 to 134 | CCOc1cnc(C)c(S(=O)(=O)c2ccc(OCc3ccccc3)cc2)c1 |
| 214 to 216 | NS(=O)(=O)c1ccc(NC(=O)CCl)cc1Cl |
| 183 to 185 | CC(=CC(=O)c1ccc(C(=O)N2Cc3cccn3Cc3ccccc32)cc1)N(C)C |
| 147 to 149 | COc1ccc(-c2cc3nc(CNCC(C)O)c4ccccc4c3nn2)cc1 (stereo not drawn) |
| 78.5 to 79.5 | COC(C1=CN(C)CS1)c1ccccc1COc1cc(Cl)ccc1Cl (stereo not drawn) |
| 48 to 50 | COC(=O)c1ccc(C(O)C#Cc2ccccc2)cc1 (stereo not drawn) |
| 184 | CCC1(C(=O)C=Cc2ccc(C(=O)O)cc2)CC1 |
| 155 to 157 | CC(C)(C)OC(=O)N1CCC(Cc2cn(S(=O)(=O)c3ccccc3)c3ccc(F)cc23)CC1 |
| 88 to 90 | Cc1c(CC(=O)N(C)C)oc2ccc(F)cc12 |
| 290 | Cc1cc(C(=O)Nc2ccc(Cl)nc2)ccc1[N+](=O)[O-] |
| 159 to 160 | Cc1cc(C)c(NC(=O)CN2CCN(CCSc3nc4ccccc4o3)CC2)c(C)n1 |
| 225 to 230 | CCOC(=O)c1ncc2[nH]c3ccc(C(=S)N4CCCCC4)cc3c2c1C |
| 198 to 199 | CC(=O)NC(C)(C(=O)NS(=O)(=O)c1ccc(C)cc1)C(C)C (stereo not drawn) |
| 187 | CNc1ccc(C(=O)Nc2ccccc2[N+](=O)[O-])cc1 |
| 88.5 to 90 | CCOc1ccccc1O[C@@H]1CN(Cc2ccccc2)C[C@H]1O (relative stereo) |
| 216 to 222 | O=C(O)CCc1ccc(Oc2ccc3c(c2)S(=O)(=O)N=C2CCCN23)cc1 |
| 135 | Clc1ncnc2c1c(Nc1ccccc1)nn2Cc1ccccc1 |
| 187 to 189 | CCOC(=O)C1Cc2ccc(NC(=O)OCc3ccccc3)cc2NC1=O (stereo not drawn) |
| 93 to 95 | CC=C1c2ccccc2CC(=O)c2ccccc21 |
| 70 to 84 | Cc1ccc(OC2SCC(O)C(O)C2O)c(-c2c(C)noc2C)n1 (stereo not drawn) |
| 147 to 149 | Cc1cccc2[nH]c(C=O)cc12 |
| 133 to 135 | COc1ccc(-c2cccc(C(N)=O)c2)cc1OC1CCCC1 |
| 130 to 131 | Cc1cccc(Cn2ncc3c(N4CCN(C(=O)OC(C)(C)C)CC4)ncnc32)c1 |
| > 300 | O=C(O)C1=Cc2cc(Cl)c(Oc3ccc(C(=O)O)cc3Cl)cc2OC1C(F)(F)F (stereo not drawn) |
| 209 to 210 | NC(=S)NC[C@H]1CN(c2ccc(N3CCN(C(=O)CO)CC3)c(F)c2)C(=O)O1 |
| 160 to 162 | Nc1ccc(-c2nc3ccccc3s2)cc1Cl |
| 132 to 134 | CC(=O)Oc1ccc(-c2ccc(CO)cc2S(=O)CC[Si](C)(C)C)cc1C (stereo not drawn) |

| melting point [°C] | Compound |
| --- | --- |
| 87.5 to 88.5 | CCC(CC)(CC(=O)Nc1cccc(OCc2ccc3ccc(Cl)cc3n2)c1)C(=O)O |
| 168 to 169 | CCCC1=C(C(=O)OCC)C(c2cc(F)ccc2F)c2c[nH]nc2N1 (stereo not drawn) |
| 140 | Cc1cc(C(O)CN(C)Cc2cc3c(=O)c(C(=O)NCc4ccc(Cl)cc4)cn(C)c3o2)oc1C (stereo not drawn) |
| 184 | Cc1cc(SCc2sc(-c3ccc(C(F)(F)F)cc3)nc2C)c2c(c1OCC(=O)O)CCC2 |
| 157 to 158 | Cc1oc(C=Cc2ccc(Cl)cc2)nc1CC(=O)O |
| 90 to 92 | COC(=O)CC(=O)c1ccc(O)cc1 |
| 219 to 224 | CCc1nc2cc(C#N)c(Cl)cc2n1-c1ccc(CCNC(=O)NS(=O)(=O)c2ccc(C)cc2)cc1 |
| 157 to 159 | O=C(O)CCCc1ccc(NS(=O)(=O)c2cccc(C(F)(F)F)c2)cn1 |
| 184 to 188 | COC(=N)c1ccc(-c2ccc([N+](=O)[O-])cc2)o1 |
| 133 | CCOC(=O)c1cn(C(C)(C)CO[Si](C)(C)C(C)(C)C)c2cc(Br)ccc2c1=O |
| 108 to 109 | O=C1c2ccccc2C(=O)N1Cc1cnc(Cl)s1 |
| 269 to 272 | COCc1nc2c(NCc3c(C)cccc3C)cc(C(=O)O)cc2n1C |
| 132 | Cc1ccc(-c2nccc3c(C#N)cccc23)cc1 |
| 74 to 77 | CS(=O)(=O)c1nc(Cl)cc(OCc2ccccc2)n1 |
| 44 to 45.5 | C=Cc1ccc(CSCCO)cc1 |
| 142 to 151 | CCOC(=O)c1c(C(F)(F)F)nc(C(F)F)c(C(=O)O)c1N |
| 118 to 121 | CC(=O)CS(=O)(=O)c1ccc(O)cc1 |
| 79 to 82 | COc1ccc(C(=O)c2cccc(C(F)(F)F)c2F)c(OC)c1 |
| 180 to 181 | COC(=O)c1cn2c(n1)COc1cc(C)ccc1-2 |
| 77 to 78 | CCSc1cc(CC=NOC)ccc1N(CC)c1nc(C)cc(C)n1 |
| 131 to 132 | CC(=O)Nc1c(Cl)cnc(OCCO)c1Cl |
| 168 to 170 | CCOC(=O)c1nc(-c2ccc(OCc3ccccc3)cc2)[nH]c1-c1ccc(C)cc1 |
| 218 to 220 | CCc1cnc(C)c(C(=O)O)c1 |
| 117 to 120 | CCOC(=O)c1cnc2snc(C)c2c1NCS(=O)(=O)c1ccc(Oc2ccc(Cl)cc2)cc1 |
| 230 to 233 | CCc1ccccc1-c1cccc2[nH]c(C(=O)O)cc12 |
| 186 to 190 | O=C(C#Cc1ccc(-c2ccc(Cl)cc2)cn1)Nc1ccc(CN2CCC(O)CC2)cc1 |
| 132 to 135 | CC(=NO)c1ccc2c(c1)oc1ccccc12 |
